One assay concerns the target T1, hSSTR4 (Homo sapiens, UniProt P31391).
T1 construct: expressed in transfected cells
The assay is described as follows: inhibition of cAMP via hSSTR4. Format: cell-based. The note with it: for EC50: cAMP inhibition, Table C, read-out: hSST4 (EC50); for hSST4/hSST2 (ratio): selectivity for inhibition of cAMP via hSSTR2 vs. hSSTR4. The source says:
General overview: All five SSTR subtypes are Gi coupled G-protein coupled receptors (GPCRs) that lead to decreases in intracellular cyclic AMP (cAMP) when activated by an agonist. Therefore, measurement of intracellular cAMP levels can be used to assess whether compounds of the invention are agonists of SSTR subtypes (John Kelly, Troy Stevens, W. Joseph Thompson, and Roland Seifert, Current Protocols in Pharmacology, 2005, 2.2.1-2.2). One example of an intracellular cAMP assay is described below. cAMP assay protocol:
Four days prior to the assay, 5,000 Chinese hamster ovary cells (CHO-K1, ATCC #CCL-61) stably expressing the human somatostatin receptor subtype 2 are plated in each well of a 96-well tissue culture-treated plate in Ham's F12 growth media (ThermoFisher #10-080-CM) supplemented with 10% donor bovine serum (Gemini Bio-Products #100-506), 100 U/mL penicillin; 100 ug/mL streptomycin; 2 mM L-glutamine (Gemini Bio-Products #400-110) and 0.2 mg/mL hygromycin B (GoldBio #31282-04-9). The cells are cultured at 37° C., 5% CO2 and 95% humidity. On the day of the assay, the media is aspirated and the cells are treated with 50 μL of 1.6 μM NKH477 (Sigma #N3290) plus various dilutions of compounds of the invention in assay buffer [1× Hank's Balanced Salt Solution (ThermoFisher #SH3058802), 0.5 mM HEPES pH 7.4, 0.1% bovine serum albumin, 0.2 mM 3-Isobutyl-1-methylxanthine (IBMX, VWR #200002-790)]. The cells are incubated for 20 minutes at 37° C. (the final concentration of the compounds of the invention are typically 0-10,000 nM). The cells are treated with 50 μL of lysis buffer (HRTF cAMP kit, Cisbio). The lysate is transferred to 384-well plates and cAMP detection and visualization antibodies are added and incubated for 1-24 hours at room temperature. The time-resolved fluorescent signal is read with a Tecan M1000Pro multiplate reader. The intracellular cAMP concentrations are calculated by regression to a standard curve and are plotted vs. the concentration of the compounds of the invention and the EC50 of the compounds are calculated using standard methods. All data manipluations are in GraphPad Prism v6.

For a further assay, the target named is T2, human CYP2D6 isozyme (Homo sapiens, UniProt P10635).
T2 construct: purchased ThermoFisher Scientific P2972
T2 sequence (P10635 whole entry): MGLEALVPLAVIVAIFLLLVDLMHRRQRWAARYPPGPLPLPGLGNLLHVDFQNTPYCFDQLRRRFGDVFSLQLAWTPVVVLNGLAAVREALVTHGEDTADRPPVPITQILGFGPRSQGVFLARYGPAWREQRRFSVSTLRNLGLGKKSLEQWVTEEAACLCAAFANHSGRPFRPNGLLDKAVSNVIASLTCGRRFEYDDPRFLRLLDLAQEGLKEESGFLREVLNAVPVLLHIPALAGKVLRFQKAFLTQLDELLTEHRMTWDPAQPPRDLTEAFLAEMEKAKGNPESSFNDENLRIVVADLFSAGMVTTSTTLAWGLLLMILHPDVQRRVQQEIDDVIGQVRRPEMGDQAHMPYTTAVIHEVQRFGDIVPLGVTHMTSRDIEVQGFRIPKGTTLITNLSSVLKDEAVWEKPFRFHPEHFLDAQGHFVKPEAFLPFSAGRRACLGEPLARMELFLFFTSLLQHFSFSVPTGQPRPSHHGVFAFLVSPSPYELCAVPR
Description: CYP2D6 assay (Vivid CYP2D6 Blue Screening Kit). The following applies: CYP450 microsomes, fluorogenic substrate; read-out: CYP2D6 inh. In kind it is in vitro ADME. As to the method:
On the day of the assay, various dilutions of test articles of the invention are prepared in assay buffer (Vivid® CYP2D6 Blue Screening Kit, ThermoFisher Scientific #P2972) and dilutions are added to a preparation of CYP450 microsomes expressing the functional human CYP2D6 isozyme (supplied by the kit) and incubated for 15 minutes at 37° C. to allow interactions between the test article of invention and the enzyme in the absence of enzyme turnover. The enzymatic reaction is initiated by addition of the NADPH co-factor in the precense of the fluorogenic substrate. Under normal conditions, this substrate (which is not fluorescent) is cleaved by active CYP2D6 to produce a a fluorescent product. When in the presence of test article, the lack of appearance of the fluorescent product is evidence of inhibition of the CYP2D6 enzyme by the test article. The enzymatic reaction is allowed to proceed for 30 minutes at […] and then terminated by the addition of 0.5 M Tris pH 10.8. The concentration of fluorescent cleavage product is measured using spectroscopic parameters prescribed in the kit with a Tecan M1000Pro multiplate reader. The percent inhibition is calculated based on the fluorescence intensity observed in the presence of the positive control inhibitor, quinidine (Sigma #Q3625), included in each assay. The percent inhibition is plotted versus test article concentration and an IC50 for CYP2D6 inhibition is calculated using standard methods. All data manipluations are in GraphPad Prism v6.

For assay [1], the target named is T3, human somatostatin receptor subtype 2 (Homo sapiens, UniProt P30874).
T3 construct: expressed in transfected cells
T3 sequence (P30874 whole entry): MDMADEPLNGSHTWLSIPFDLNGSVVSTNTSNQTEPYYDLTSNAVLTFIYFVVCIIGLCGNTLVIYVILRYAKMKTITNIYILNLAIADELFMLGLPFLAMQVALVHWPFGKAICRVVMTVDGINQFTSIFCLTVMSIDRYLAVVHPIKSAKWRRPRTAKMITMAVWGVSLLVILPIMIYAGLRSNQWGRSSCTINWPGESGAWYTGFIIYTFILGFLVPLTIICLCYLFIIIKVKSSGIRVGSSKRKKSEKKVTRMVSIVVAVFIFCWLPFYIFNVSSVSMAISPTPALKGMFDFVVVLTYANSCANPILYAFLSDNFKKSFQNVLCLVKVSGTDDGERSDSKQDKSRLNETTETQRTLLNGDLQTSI
Description: cAMP functional assay for SSTR2 agonists. In kind it is cell-based. An outline of the steps:
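CHO-K1 cells stably expressing human SSTR2 were treated for 20 min at 37 °C with compound plus NKH477 (added as 1.6 μM) in HBSS with IBMX. Intracellular cAMP was measured by HTRF against a standard curve. EC50 values came from concentration-response curves.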

The next assay deals with T4, hERG ion channel (Homo sapiens, UniProt Q12809).
T4 construct: purchased ThermoFisher Scientific PV5365
T4 sequence (Q12809 whole entry): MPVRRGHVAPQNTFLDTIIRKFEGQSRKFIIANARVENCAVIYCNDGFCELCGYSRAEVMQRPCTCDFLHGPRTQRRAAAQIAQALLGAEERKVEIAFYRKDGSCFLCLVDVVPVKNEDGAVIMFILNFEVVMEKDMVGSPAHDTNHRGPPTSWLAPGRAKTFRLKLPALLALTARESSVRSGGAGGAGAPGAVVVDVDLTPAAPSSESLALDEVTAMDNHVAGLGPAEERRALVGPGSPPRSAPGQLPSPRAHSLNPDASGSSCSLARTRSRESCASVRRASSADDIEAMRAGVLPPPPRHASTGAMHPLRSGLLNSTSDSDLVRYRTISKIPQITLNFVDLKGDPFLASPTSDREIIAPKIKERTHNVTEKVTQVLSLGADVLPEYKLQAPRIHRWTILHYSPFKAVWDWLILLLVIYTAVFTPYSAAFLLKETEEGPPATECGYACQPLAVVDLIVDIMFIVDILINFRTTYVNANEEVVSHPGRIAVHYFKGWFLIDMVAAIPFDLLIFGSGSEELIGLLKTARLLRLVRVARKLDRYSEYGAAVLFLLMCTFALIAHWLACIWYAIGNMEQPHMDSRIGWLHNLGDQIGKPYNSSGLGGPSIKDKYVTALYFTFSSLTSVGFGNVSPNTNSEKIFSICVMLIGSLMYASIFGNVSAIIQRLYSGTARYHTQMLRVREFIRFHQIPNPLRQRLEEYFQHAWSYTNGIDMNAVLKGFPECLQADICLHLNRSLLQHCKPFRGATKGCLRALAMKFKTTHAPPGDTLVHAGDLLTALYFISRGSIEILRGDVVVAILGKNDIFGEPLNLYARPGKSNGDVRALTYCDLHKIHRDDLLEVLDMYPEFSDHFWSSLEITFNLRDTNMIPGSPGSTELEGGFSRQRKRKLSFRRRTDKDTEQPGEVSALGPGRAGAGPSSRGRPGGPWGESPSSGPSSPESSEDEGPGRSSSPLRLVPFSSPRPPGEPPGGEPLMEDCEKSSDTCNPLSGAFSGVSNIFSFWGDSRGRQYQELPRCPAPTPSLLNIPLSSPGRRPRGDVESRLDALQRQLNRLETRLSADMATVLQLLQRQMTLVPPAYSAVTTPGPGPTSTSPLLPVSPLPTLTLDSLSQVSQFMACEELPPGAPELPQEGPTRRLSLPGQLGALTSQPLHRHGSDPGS
The assay is described as follows: hERG fluorescence polarization assay (Predictor kit). Format: binding. The following applies: tracer displacement, membrane fractions; read-out: hERG inh. As for the experimental part:
On the day of the assay, various dilutions of test articles of the invention are prepared in assay buffer (Predictor™ hERG Fluorescence Polarization Assay Kit, ThermoFisher Scientific #PV5365) and dilutions are added to membranes fractions that contain the functional hERG ion channel (supplied by the kit). […] Under normal conditions, the tracer binds to the hERG channel and the fluorecence polarization measured is high. […] The concentration of free tracer is measured via fluorescence polarization using parameters prescribed in the kit with a Tecan M1000Pro multiplate reader. […] The fluorescence polarization is plotted versus test article concentration and an IC50 for hERG inhibition is calculated using standard methods. All data manipluations are in GraphPad Prism v6.

Setting [2] is: cAMP inhibition, Table C, read-out: hSST2 (EC50).
The mark [3] stands for this setting: inhibition of cAMP activities via human SST2 receptor (SSTR2), CHO-K1 cells, read-out: EC50.

Usually EC50 stands for the concentration that produces a half-maximal response.

Where two headings read alike, the source gives them in different places.

T1 sequence (P31391 whole entry): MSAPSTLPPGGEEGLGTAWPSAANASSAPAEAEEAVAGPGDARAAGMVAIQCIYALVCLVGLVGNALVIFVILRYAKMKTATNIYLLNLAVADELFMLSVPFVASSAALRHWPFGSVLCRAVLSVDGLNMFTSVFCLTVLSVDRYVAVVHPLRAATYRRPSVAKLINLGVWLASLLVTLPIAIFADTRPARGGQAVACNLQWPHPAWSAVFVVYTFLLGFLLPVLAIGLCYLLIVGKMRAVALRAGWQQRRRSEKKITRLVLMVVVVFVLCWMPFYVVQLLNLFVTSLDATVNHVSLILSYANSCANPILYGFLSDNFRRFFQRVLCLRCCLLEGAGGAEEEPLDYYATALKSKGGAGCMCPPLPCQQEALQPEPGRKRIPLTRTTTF

For the compound `Cc1cc(F)cc(-c2cncc(-c3nc4cc(F)ccc4[nH]3)c2N2CCC(N)CC2)c1` [R^1=H, R^5=H, R^6=5-F, R^7=H, reference compound], at hSSTR4, the EC50 was determined as 0.12 nM. The IC50 on human CYP2D6 isozyme is < 5000 nM.

Consider `Cc1cc(F)cc(-c2cnc(N)c(-c3nc4cc(F)cc(F)c4[nH]3)c2N2CCC(N)CC2)c1` [Compound 1-2, 4-(4-aminopiperidin-1-yl)-3-(5,7-difluoro-1H-1,3-benzodiazol-2-yl)-5-(3-fluoro-5-methylphenyl)pyridin-2-amine], for which the figures for the EC50 (in assay [1] (setting [2]); in assay [1] (setting [3]); on hSSTR4) were 0.05 nM, < 10 nM and 1.3 nM, respectively. For the same compound, on hSSTR4, the “hSST4/hSST2 (ratio)” value was “b (between 15 and 50)”. For the same compound, the IC50 at human CYP2D6 isozyme and on hERG ion channel was > 5000 nM in each case.

Turning to `Cc1cc(F)cc(-c2cnc(N)c(-c3nc4cc(C#N)ccc4[nH]3)c2N2CCC(N)CC2)c1` [Compound 1-12, 2-[2-amino-4-(4-aminopiperidin-1-yl)-5-(3-fluoro-5-methylphenyl)pyridin-3-yl]-1H-1,3-benzodiazole-5-carbonitrile], the values for the EC50 (in assay [1] (setting [2]); in assay [1] (setting [3]); at hSSTR4) were 0.06 nM, < 10 nM and 14 nM, respectively. Besides, on hSSTR4, the “hSST4/hSST2 (ratio)” value is “a (above 50)”. Moreover, the IC50 at human CYP2D6 isozyme and on hERG ion channel was > 5000 nM in each case.

Turning to `Cc1cc(F)cc(-c2cnc(N)c(-c3nc4cc(Cl)ccc4[nH]3)c2N2CCC(N)CC2)c1` [Compound 1-1, 4-(4-aminopiperidin-1-yl)-3-(5-chloro-1H-1,3-benzodiazol-2-yl)-5-(3-fluoro-5-methylphenyl)pyridin-2-amine], the figures for the EC50 (in assay [1] (setting [2]); in assay [1] (setting [3]); at hSSTR4) were 0.03 nM, < 10 nM and 0.7 nM, respectively. The “hSST4/hSST2 (ratio)” value at hSSTR4 was “b (between 15 and 50)”. In addition, the IC50 at human CYP2D6 isozyme and at hERG ion channel was > 5000 nM each time.

With `Cc1cc(F)cc(-c2cnc(N)c(-c3nc4cc(F)ccc4[nH]3)c2N2CCC(N)CC2)c1` [Compound 1-6, 4-(4-aminopiperidin-1-yl)-3-(5-fluoro-1H-1,3-benzodiazol-2-yl)-5-(3-fluoro-5-methylphenyl)pyridin-2-amine], the figures for the EC50 (in assay [1] (setting [2]); in assay [1] (setting [3]); at hSSTR4) were 0.06 nM, < 10 nM and 0.92 nM, respectively. Also, the “hSST4/hSST2 (ratio)” value at hSSTR4 was “b (between 15 and 50)”. For the same compound, the IC50 at human CYP2D6 isozyme and on hERG ion channel was > 5000 nM each time.

On to `Cc1cc(F)cc(-c2cncc(-c3nc4cc(C#N)ccc4[nH]3)c2N2CCC(N)CC2)c1` [R^1=H, R^5=H, R^6=5-CN, R^7=H, reference compound], for which the EC50 came out at 0.13 nM in assay [1] (setting [2]) and 1.2 nM on hSSTR4. Also, the “hSST4/hSST2 (ratio)” value at hSSTR4 was “c (between 2.5 and 15)”. The IC50 is > 5000 nM on human CYP2D6 isozyme and < 5000 nM on hERG ion channel.

Regarding `CNc1ncc(-c2cc(C)cc(F)c2)c(N2CCC(N)CC2)c1-c1nc2cc(F)cc(F)c2[nH]1` [Compound 1-48, 4-(4-aminopiperidin-1-yl)-3-(5,7-difluoro-1H-1,3-benzodiazol-2-yl)-5-(3-fluoro-5-methylphenyl)-N-methylpyridin-2-amine], the figures for the EC50 (in assay [1] (setting [2]); in assay [1] (setting [3]); at hSSTR4) were 0.18 nM, < 10 nM and 15 nM, respectively. Also, the “hSST4/hSST2 (ratio)” value on hSSTR4 is given as “a (above 50)”. In addition, the IC50 at human CYP2D6 isozyme and at hERG ion channel was > 5000 nM in each case.

`CCNc1ncc(-c2cc(C)cc(F)c2)c(N2CCC(N)CC2)c1-c1nc2cc(F)cc(F)c2[nH]1` [Compound 1-49, 4-(4-aminopiperidin-1-yl)-3-(5,7-difluoro-1H-1,3-benzodiazol-2-yl)-N-ethyl-5-(3-fluoro-5-methylphenyl)pyridin-2-amine]: the EC50 in assay [1] (setting [3]) was < 10 nM. The “hSST4/hSST2 (ratio)” value on hSSTR4 is “a (above 50)”.

As to `CCNc1ncc(-c2cc(C)cc(F)c2)c(N2CCC(N)CC2)c1-c1nc2cc(Cl)ccc2[nH]1` [Compound 1-30, 4-(4-aminopiperidin-1-yl)-3-(5-chloro-1H-1,3-benzodiazol-2-yl)-N-ethyl-5-(3-fluoro-5-methylphenyl)pyridin-2-amine], the EC50 in assay [1] (setting [3]) is < 10 nM. Also, the “hSST4/hSST2 (ratio)” value on hSSTR4 is “a (above 50)”.

For the compound `COc1cc(F)c2nc(-c3c(N)ncc(-c4cc(C)cc(F)c4)c3N3CCC(N)CC3)[nH]c2c1` [Compound 1-59, 4-(4-aminopiperidin-1-yl)-5-(3-fluoro-5-methylphenyl)-3-(4-fluoro-6-methoxy-1H-1,3-benzodiazol-2-yl)pyridin-2-amine], the EC50 in assay [1] (setting [3]) was < 10 nM. Besides, at hSSTR4, the “hSST4/hSST2 (ratio)” value was “b (between 15 and 50)”.

As to `Cc1cc(F)cc(-c2cnc(N)c(-c3nc4cc(F)c(F)cc4[nH]3)c2N2CCC(N)CC2)c1` [Compound 1-3, 4-(4-aminopiperidin-1-yl)-3-(5,6-difluoro-1H-1,3-benzodiazol-2-yl)-5-(3-fluoro-5-methylphenyl)pyridin-2-amine], in assay [1] (setting [3]), the EC50 is < 10 nM. The “hSST4/hSST2 (ratio)” value on hSSTR4 was “b (between 15 and 50)”.

As to `Cc1cc(F)cc(-c2cnc(N)c(-c3nc4cc(OC(F)(F)F)ccc4[nH]3)c2N2CCC(N)CC2)c1` [Compound 1-14, 4-(4-aminopiperidin-1-yl)-5-(3-fluoro-5-methylphenyl)-3-[5-(trifluoromethoxy)-1H-1,3-benzodiazol-2-yl]pyridin-2-amine], the EC50 in assay [1] (setting [3]) was < 10 nM. The “hSST4/hSST2 (ratio)” value at hSSTR4 is “a (above 50)”.

In the case of `Cc1cc(F)cc(-c2cnc(N)c(-c3nc4cccc(F)c4[nH]3)c2N2CCC(N)CC2)c1` [Compound 1-11, 4-(4-aminopiperidin-1-yl)-3-(7-fluoro-1H-1,3-benzodiazol-2-yl)-5-(3-fluoro-5-methylphenyl)pyridin-2-amine], the values for the EC50 (in assay [1] (setting [2]); in assay [1] (setting [3]); on hSSTR4) were 0.27 nM, < 10 nM and 0.71 nM, respectively. For the same compound, the “hSST4/hSST2 (ratio)” value at hSSTR4 was “c (between 2.5 and 15)”. The IC50 on human CYP2D6 isozyme and at hERG ion channel was > 5000 nM throughout.

With `COc1cc(F)cc2[nH]c(-c3c(N)ncc(-c4cc(C)cc(F)c4)c3N3CCC(N)CC3)nc12` [Compound 1-58, 4-(4-aminopiperidin-1-yl)-3-(6-fluoro-4-methoxy-1H-1,3-benzodiazol-2-yl)-5-(3-fluoro-5-methylphenyl)pyridin-2-amine], the EC50 in assay [1] (setting [3]) was < 10 nM. Further, on hSSTR4, the “hSST4/hSST2 (ratio)” value is “c (between 2.5 and 15)”.

With `COc1ncc(-c2cc(C)cc(F)c2)c(N2CCC(N)CC2)c1-c1nc2cc(F)ccc2[nH]1` [Compound 2-1, 1-[3-(5-fluoro-1H-1,3-benzodiazol-2-yl)-5-(3-fluoro-5-methylphenyl)-2-methoxypyridin-4-yl]piperidin-4-amine], the EC50 in assay [1] (setting [3]) was < 10 nM. Further, the “hSST4/hSST2 (ratio)” value on hSSTR4 is reported as “a (above 50)”.

Values taken from patent US11072598B2, “Somatostatin modulators and uses thereof” (CRINETICS PHARMACEUTICALS, INC., priority 2017, dated 2021).
